Tests used:
[1] = target: human CYP11B1 (Homo sapiens (Human), UniProt P15538); assay: G-402 cellular enzyme assay, human CYP11B1 (cortisol release); type: cell-based; conditions: G-402 cells expressing human CYP11B1, 1 μM Deoxycortisol
Text: (§1) The expression plasmids contains the ORF for either human/cyno CYP11B1 or CYP11B2 under the control of a suitable promoter (CMV-promoter) and a suitable resistance marker (neomycin). Using standard techniques the expression plasmid is transfected into G-402 cells and these cells are then selected for expressing the given resistance markers. Individual cell-clones are then selected and assessed for displaying the desired enzymatic activity using 11-Deoxycorticosterone (Cyp 11B2) or 11-Deoxycortisol (Cyp 11B1) as a substrate.
(§2) G-402 cells expressing CYP11 constructs were established as described above and maintained in McCoy's 5a Medium Modified, ATCC Catalog No. 30-2007 containing 10% FCS and 400 μg/ml G418 (Geneticin) at 37° C. under an atmosphere of 5% CO2/95% air. […] For assaying enzymatic activity, cells were plated onto 96 well plates and incubated for 16 h. An aliquot of the supernatant is then transferred and analyzed for the concentration of the expected product (Aldosterone for CYP11B2; Cortisol for CYP11B1). The concentrations of these steroids can be determined using HTRF assays from CisBio analyzing either Aldosterone or Cortisol.
(§3) Inhibition of the release of produced steroids can be used as a measure of the respective enzyme inhibition by test compounds added during the cellular enzyme assay. The dose dependent inhibition of enzymatic activity by a compound is calculated by means of plotting added inhibitor concentrations (x-axes) vs. measured steroid/product level (y-axes). The inhibition is then calculated by fitting the following 4-parameter sigmoidal function (Morgan-Mercer-Flodin (MMF) model) to the raw data points using the least squares method:
(§4) [formula] wherein, A is the maximum y value, B is the EC50 factor determined using XLFit, C is the minimum y value and D is the slope value.
(§5) EC50 values for compounds claimed herein were tested with the G402-based assay system described. Cyp 11B2 enzyme activity was tested in presence of 1 μM Deoxycorticosterone and variable amounts of inhibitors; Cyp 11B1 enzyme activity was tested in presence of 1 μM Deoxycortisol and variable amounts of inhibitors.

[2] = target: CYP11B2 (Homo sapiens (Human), UniProt P19099); assay: G-402 cellular enzyme assay, human CYP11B2 (aldosterone release); type: cell-based; conditions: G-402 cells expressing human CYP11B2, 1 μM Deoxycorticosterone
Text: as §1, §2, §3, §4, §5

human CYP11B1, sequence (P15538 25-503): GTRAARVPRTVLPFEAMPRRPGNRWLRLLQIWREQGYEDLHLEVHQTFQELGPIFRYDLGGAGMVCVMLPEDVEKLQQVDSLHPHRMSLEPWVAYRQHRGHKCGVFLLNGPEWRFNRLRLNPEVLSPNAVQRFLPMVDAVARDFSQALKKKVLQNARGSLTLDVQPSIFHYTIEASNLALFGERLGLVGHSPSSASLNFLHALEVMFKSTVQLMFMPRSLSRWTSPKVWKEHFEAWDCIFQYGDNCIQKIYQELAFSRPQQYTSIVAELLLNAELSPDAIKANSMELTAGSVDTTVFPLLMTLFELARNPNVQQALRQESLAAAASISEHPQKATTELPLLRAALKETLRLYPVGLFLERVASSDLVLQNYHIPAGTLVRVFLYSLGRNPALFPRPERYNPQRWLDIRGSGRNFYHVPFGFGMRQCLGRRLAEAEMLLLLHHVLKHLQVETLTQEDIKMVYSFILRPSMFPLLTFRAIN
CYP11B2, sequence (P19099 25-503): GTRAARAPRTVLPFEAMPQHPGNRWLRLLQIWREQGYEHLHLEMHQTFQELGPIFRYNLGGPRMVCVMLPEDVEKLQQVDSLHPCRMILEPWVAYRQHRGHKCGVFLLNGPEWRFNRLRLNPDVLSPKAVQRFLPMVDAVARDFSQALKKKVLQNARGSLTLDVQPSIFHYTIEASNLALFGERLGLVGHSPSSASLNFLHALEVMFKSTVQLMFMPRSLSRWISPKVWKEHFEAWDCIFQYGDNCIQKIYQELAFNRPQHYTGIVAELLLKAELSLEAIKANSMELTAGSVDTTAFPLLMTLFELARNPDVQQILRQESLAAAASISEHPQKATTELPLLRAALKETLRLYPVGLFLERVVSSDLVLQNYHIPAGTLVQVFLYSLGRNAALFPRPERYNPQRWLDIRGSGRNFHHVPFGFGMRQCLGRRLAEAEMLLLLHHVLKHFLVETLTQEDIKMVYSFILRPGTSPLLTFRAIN

Row | Structure (SMILES) | EC50 [1] | EC50 [2]
1 | CCC(=O)N[C@@H]1c2cncc(-c3ccc(C(F)(F)F)cc3)c2CC[C@@H]1C (single isomer, unassigned) [Example 68, N-[(7S,8S or 7R,8R)-7-Methyl-4-(4-trifluoromethyl-phenyl)-5,6,7,8-tetrahydro-isoquinolin-8-yl]-propionamide] | 10700 nM | 658 nM
2 | CCC(=O)N[C@H]1c2cncc(-c3ccc(C(F)(F)F)cc3)c2CC[C@@H]1C (single isomer, unassigned) [Example 69, N-[(7S,8R or 7R,8S)-7-Methyl-4-(4-trifluoromethyl-phenyl)-5,6,7,8-tetrahydro-isoquinolin-8-yl]-propionamide] | 742 nM | 11 nM
3 | CCC(=O)N[C@H]1c2cncc(-c3ccc(C(F)(F)F)cc3)c2CC[C@H]1C (single isomer, unassigned) [Example 70, N-[(7R,8R or 7S,8S)-7-Methyl-4-(4-trifluoromethyl-phenyl)-5,6,7,8-tetrahydro-isoquinolin-8-yl]-propionamide] | 3030 nM | 42 nM
4 | Cc1ccc(C2(O)CCCc3c(-c4ccc(C#N)cc4)cncc32)cc1C (single isomer, unassigned; (+)) [Example 15, (+)-(S or R)-4-(8-(3,4-Dimethylphenyl)-8-hydroxy-5,6,7,8-tetrahydroisoquinolin-4-yl)benzonitrile] | 21 nM | 5 nM
5 | CCC(=O)NC1CCc2c(-c3ccc(C#N)cc3)cncc21 (single isomer, unassigned; (+)) [Example 19, (+)-(R or S)—N-(4-(4-Cyanophenyl)-6,7-dihydro-5H-cyclopenta[c]pyridin-7-yl)propionamide] | 174 nM | 12 nM
6 | CCC(=O)NC1CCCc2c(-c3ccc(C(F)(F)F)cc3)cncc21 (single isomer, unassigned; (+)) [Example 23, (+)-(R or S)—N-(4-(4-(Trifluoromethyl)phenyl)-5,6,7,8-tetrahydroisoquinolin-8-yl)propionamide] | 3690 nM | 31 nM
7 | CCC(=O)NC1CCCc2c(-c3ccc(Cl)cc3)cncc21 (single isomer, unassigned; (+)) [Example 26, (+)-(R or S)—N-(4-(4-Chlorophenyl)-5,6,7,8-tetrahydroisoquinolin-8-yl)propionamide] | 503 nM | 17 nM
8 | CCC(=O)NC1CCCc2c(-c3ccc(F)c(C)c3)cncc21 (single isomer, unassigned; (+)) [Example 29, (+)-(R or S)—N-(4-(4-fluoro-3-methylphenyl)-5,6,7,8-tetrahydroisoquinolin-8-yl)propionamide] | 241 nM | 4 nM
9 | CCC(=O)NC1CCCc2c(-c3ccc(Cl)cc3F)cncc21 (single isomer, unassigned; (+)) [Example 32, (+)-(R or S)—N-(4-(4-Chloro-2-fluorophenyl)-5,6,7,8-tetrahydroisoquinolin-8-yl)propionamide] | 617 nM | 19 nM
10 | CCC(=O)NC1CCCc2c(-c3ccc(C(F)(F)F)cc3F)cncc21 (single isomer, unassigned; (+)) [Example 35, (+)-(R or S)—N-(4-(2-Fluoro-4-(trifluoromethyl)phenyl)-5,6,7,8-tetrahydroisoquinolin-8-yl)propionamide] | 6680 nM | 71 nM
11 | CCC(=O)NC1CCCc2c(-c3ccc(Cl)c(F)c3)cncc21 (single isomer, unassigned; (+)) [Example 38, (+)-(R or S)—N-(4-(4-Chloro-3-fluorophenyl)-5,6,7,8-tetrahydroisoquinolin-8-yl)propionamide] | 214 nM | 7 nM
12 | CCC(=O)NC1CCCc2c(-c3ccc(C(F)(F)F)c(F)c3)cncc21 (single isomer, unassigned; (+)) [Example 41, (+)-(R or S)—N-(4-(3-Fluoro-4-(trifluoromethyl)phenyl)-5,6,7,8-tetrahydroisoquinolin-8-yl)propionamide] | 1810 nM | 16 nM
13 | CCC(=O)NC1CCc2c(-c3ccc(C(F)(F)F)cc3)cncc21 (single isomer, unassigned; (+)) [Example 51, (+)-(R or S)—N-(4-(4-(Trifluoromethyl)phenyl)-6,7-dihydro-5H-cyclopenta[c]pyridin-7-yl)propionamide] | 2260 nM | 25 nM
14 | C[C@@H](O)C(=O)NC1CCc2c(-c3ccc(C(F)(F)F)cc3)cncc21 (single isomer, unassigned; (+)) [Example 54, (+)-(R)-2-Hydroxy-N—((R or S)-4-(4-(trifluoromethyl)phenyl)-6,7-dihydro-5H-cyclopenta[c]pyridin-7-yl)propanamide] | 3170 nM | 89 nM
15 | CCC(=O)NC1CCc2c(-c3ccc(Cl)c(F)c3)cncc21 (single isomer, unassigned; (+)) [Example 57, (+)-(R or S)—N-(4-(4-Chloro-3-fluorophenyl)-6,7-dihydro-5H-cyclopenta[c]pyridin-7-yl)propionamide] | 103 nM | 7 nM
16 | CCC(=O)NC1CCc2c(-c3ccc(F)c(C)c3)cncc21 (single isomer, unassigned; (+)) [Example 60, (+)-(R or S)—N-(4-(4-Fluoro-3-methylphenyl)-6,7-dihydro-5H-cyclopenta[c]pyridin-7-yl)propionamide] | 64 nM | 2 nM
17 | CCC(=O)NC1CCc2c(-c3ccc(C(F)(F)F)cc3F)cncc21 (single isomer, unassigned; (+)) [Example 63, (+)-(R or S)—N-(4-(2-Fluoro-4-(trifluoromethyl)phenyl)-6,7-dihydro-5H-cyclopenta[c]pyridin-7-yl)propionamide] | 1720 nM | 30 nM
18 | CCS(=O)(=O)NC1CCc2c(-c3ccc(C(F)(F)F)cc3)cncc21 (single isomer, unassigned; (+)) [Example 66, (+)-(R or S)—N-(4-(4-(Trifluoromethyl)phenyl)-6,7-dihydro-5H-cyclopenta[c]pyridin-7-yl)ethanesulfonamide] | 14200 nM | 280 nM
19 | CCS(=O)(=O)NC1CCc2c(-c3ccc(C(F)(F)F)c(F)c3)cncc21 (single isomer, unassigned; (+)) [Example 73, (+)-(R or S)—N-(4-(3-Fluoro-4-(trifluoromethyl)phenyl)-6,7-dihydro-5H-cyclopenta[c]pyridin-7-yl)ethanesulfonamide] | 1870 nM | 44.4 nM
20 | OC1CCCc2c(-c3ccc(C(F)(F)F)cc3)cncc21 (single isomer, unassigned; (+)) [Example 106, (+)-(R or S)-4-(4-(Trifluoromethyl)phenyl)-5,6,7,8-tetrahydroisoquinolin-8-ol] | 159 nM | 4.6 nM
21 | Cc1ccc(C2(O)CCCc3c(-c4ccc(C#N)cc4)cncc32)cc1C (single isomer, unassigned; (-)) [Example 16, (−)-(R or S)-4-(8-(3,4-Dimethylphenyl)-8-hydroxy-5,6,7,8-tetrahydroisoquinolin-4-yl)benzonitrile] | 488 nM | 72 nM
22 | CCC(=O)NC1CCc2c(-c3ccc(C#N)cc3)cncc21 (single isomer, unassigned; (-)) [Example 18, (−)-(S or R)—N-(4-(4-Cyanophenyl)-6,7-dihydro-5H-cyclopenta[c]pyridin-7-yl)propionamide] | 7220 nM | 879 nM
